Tested on: Mtb (mc^26030)
Type: cell-based, Mycobacterium tuberculosis
Settings: combined with meropenem

Row | SMILES | FICA (apparent FIC)
1 | c1ccc(-c2nc3cc(Cc4ccc5[nH]c(-c6ccccn6)nc5c4)ccc3[nH]2)nc1 [Compound F0850-5995] | greater than 5.0
2 | Cc1ccc(C)c(Nc2nc(NCc3ccccc3)c3ccccc3n2)c1 [Compound F0909-0124] | greater than 5.0

Source: publication PMC13129536 (The Journal of Biological Chemistry, 2026)
